The text below walks through data of patent publication US20250326744A1, “PIPERAZINE DERIVATIVE OR SALT THEREOF, AND PHARMACEUTICAL COMPOSITION” (priority 2022, published 2025).

In one test the test system is mexB (PA) strain. The experiment in a line: Combinational effect with antibacterial agent against Pseudomonas aeruginosa (Test Examples 2 and 4): mexB (PA) strain with LVFX, TC or AZT at 1/4 MIC, EC99. It is filed as cell-based. The conditions noted are these: for EC99, mexB (PA), AZT / EC99, mexB (PA), LVFX / EC99, mexB (PA), TC: Table 52, Test Example 2, 16 to 20 hours culture, OD595; for EC99, mexB (PA), AZT / EC99, combinational effect with AZT, mexB (PA): combined with AZT at 1/4 MIC; for EC99, mexB (PA), LVFX / EC99, combinational effect with LVFX, mexB (PA): combined with LVFX at 1/4 MIC; for EC99, mexB (PA), TC / EC99, combinational effect with TC, mexB (PA): combined with TC at 1/4 MIC; for EC99, combinational effect with AZT, mexB (PA) / EC99, combinational effect with LVFX, mexB (PA) / EC99, combinational effect with TC, mexB (PA): mexB (PA) strain, Test Example 4. In short, it runs like this:
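EC99 denotes the minimum test-compound concentration (range 0–800 μM) that suppresses ≥99% of growth, measured by OD595, when combined with ¼ MIC levofloxacin (LVFX), tetracycline or aztreonam. The efflux-pump mutant mexB (PA), expressing mainly MexAB-OprM, was inoculated at 10^4–5 CFU/well in CAMHB for 16–20 h.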

A further test deals with S-3769 strain. The test is described as follows: Combinational effect with antibacterial agent against Pseudomonas aeruginosa (Test Examples 2 and 4): S-3769 strain with AMK or GM at 1/4 MIC, EC99. It is filed as cell-based. The conditions noted are these: for EC99, S-3769 strain, AMK / EC99, S-3769 strain, GM: Table 52, Test Example 2, 16 to 20 hours culture, OD595; for EC99, S-3769 strain, AMK / EC99, combinational effect with AMK, S-3769 strain: combined with AMK at 1/4 MIC; for EC99, S-3769 strain, GM / EC99, combinational effect with GM, S-3769 strain: combined with GM at 1/4 MIC; for EC99, combinational effect with AMK, S-3769 strain / EC99, combinational effect with GM, S-3769 strain: Test Example 4. The method, boiled down:
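EC99, the lowest test-compound concentration inhibiting growth by ≥99% (OD595), was measured with aminoglycoside AMK or GM held at ¼ MIC. Strain S-3769, a MexY-overexpressing clinical isolate, was cultured in CAMHB at 10^4 to 5 CFU/well for 16–20 h; compound range 0–800 μM.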

SMILES strings stand for the structures. Counter-ions that a name gives are not always drawn.

Take `N[C@@H](C(=O)N1CCN(Cc2cccc3c2OCCC3)CC1)C1CCN(CCc2cc(Cl)ccc2-c2ccccc2)CC1` [Example 10, Hydrobromide of (R)-2-amino-2-(1-(2-(4-chloro-[1,1′-biphenyl]-2-yl)ethyl)piperidin-4-yl)-1-(4-(chroman-8-ylmethyl)piperazin-1-yl)ethan-1-one]: in the test on mexB (PA) strain, the “EC99, mexB (PA), AZT” value is reported as “A (12.5 μM<EC99≤25 μM)”; the “EC99, mexB (PA), LVFX” value was “A (12.5 μM<EC99≤25 μM)”; the “EC99, mexB (PA), TC” value is listed as “A (12.5 μM<EC99≤25 μM)”. Further, in the test with S-3769 strain, the “EC99, S-3769 strain, AMK” value was “A (12.5 μM<EC99≤25 μM)” and the “EC99, S-3769 strain, GM” value is reported as “A (12.5 μM<EC99≤25 μM)”.
As to `COc1cccc(SC)c1CN1CCN(C(=O)[C@H](N)C2CCN(CCc3cc(Cl)ccc3-c3ccccc3)CC2)CC1` [Example 522, Hydrobromide of (R)-2-amino-2-(1-(2-(4-chloro-[1,1-biphenyl]-2-yl)ethyl)piperidin-4-yl)-1-(4-(2-methoxy-6-(methylthio)benzyl)piperazin-1-yl)ethan-1-one], in the test with mexB (PA) strain, the “EC99, combinational effect with AZT, mexB (PA)” value (“EC99 … with AZT, mexB (PA)” below) is given as “B (25 μM<EC99≤100 μM)”; the “EC99, combinational effect with LVFX, mexB (PA)” value (from here on “EC99 … with LVFX, mexB (PA)”) was “A (12.5 μM<EC99≤25 μM)”; the “EC99, combinational effect with TC, mexB (PA)” value (“EC99 … with TC, mexB (PA)” below) was “B (25 μM<EC99≤100 μM)”. Also, in the test on S-3769 strain, the “EC99, combinational effect with AMK, S-3769 strain” value (“EC99, combinational effect with AMK” for short) is “A (12.5 μM<EC99≤25 μM)” and the “EC99, combinational effect with GM, S-3769 strain” value (from here on “EC99, combinational effect with GM”) was “B (25 μM<EC99≤100 μM)”.
Take `CCOc1cccc(F)c1CN1CCN(C(=O)[C@H](N)C2CCN(CCc3cc(Cl)ccc3C3=CCNCC3)CC2)CC1` [Example 71, (R)-2-amino-2-(1-(5-chloro-2-(1,2,3,6-tetrahydropyridin-4-yl)phenethyl)piperidin-4-yl)-1-(4-(2-ethoxy-6-fluorobenzyl)piperazin-1-yl)ethan-1-one]: in the test on mexB (PA) strain, the “EC99, mexB (PA), AZT” value is reported as “C (100 μM<EC99)”; the “EC99, mexB (PA), LVFX” value is recorded as “B (25 μM<EC99≤100 μM)”; the “EC99, mexB (PA), TC” value was “S (EC99≤12.5 μM)”. In addition, in the test on S-3769 strain, the “EC99, S-3769 strain, AMK” value is on record as “S (EC99≤12.5 μM)” and the “EC99, S-3769 strain, GM” value is reported as “S (EC99≤12.5 μM)”.
Consider `CCSc1ncccc1CN1CCN(C(=O)[C@H](N)C2CCN(CCc3cc(Cl)ccc3-c3ccccc3)CC2)CC1` [Example 535, Hydrobromide of (R)-2-amino-2-(1-(2-(4-chloro-[1,1-biphenyl]-2-yl)ethyl)piperidin-4-yl)-1-(4-((2-(ethylthio)pyridin-3-yl)methyl)piperazin-1-yl)ethan-1-one], for which, in the test on mexB (PA) strain, the “EC99 … with AZT, mexB (PA)” value is given as “B (25 μM<EC99≤100 μM)”; the “EC99 … with LVFX, mexB (PA)” value is “A (12.5 μM<EC99≤25 μM)”; the “EC99 … with TC, mexB (PA)” value was “B (25 μM<EC99≤100 μM)”. For the same compound, in the test with S-3769 strain, the “EC99, combinational effect with AMK” value is on record as “B (25 μM<EC99≤100 μM)” and the “EC99, combinational effect with GM” value is recorded as “B (25 μM<EC99≤100 μM)”.
For the compound `CCOc1cccc(F)c1CN1CCN(C(=O)[C@H](N)C2CCN(CCC3CCCCO3)CC2)CC1` (stereo partly drawn) [Example 123], in the test on mexB (PA) strain, the “EC99, mexB (PA), AZT” value was “C (100 μM<EC99)”; the “EC99, mexB (PA), LVFX” value is “C (100 μM<EC99)”; the “EC99, mexB (PA), TC” value is given as “C (100 μM<EC99)”. In the test on S-3769 strain, the “EC99, S-3769 strain, AMK” value is “C (100 μM<EC99)” and the “EC99, S-3769 strain, GM” value is on record as “C (100 μM<EC99)”.
Regarding `CCOc1cccc(F)c1CN1CCN(C(=O)[C@H](N)C2CCN(CCc3cc(Cl)ccc3-c3cnc(NC)c(C)c3)CC2)CC1` [Example 563, Hydrobromide of (R)-2-amino-2-(1-(5-chloro-2-(5-methyl-6-(methylamino)pyridine-3-yl)phenethyl)piperidin-4-yl)-1-(4-(2-ethoxy-6-fluorobenzyl)piperazin-1-yl)ethan-1-one], in the test on mexB (PA) strain, the “EC99 … with AZT, mexB (PA)” value is “C (100 μM<EC99)”; the “EC99 … with LVFX, mexB (PA)” value was “C (100 μM<EC99)”; the “EC99 … with TC, mexB (PA)” value was “C (100 μM<EC99)”. In the test with S-3769 strain, the “EC99, combinational effect with AMK” value is “A (12.5 μM<EC99≤25 μM)” and the “EC99, combinational effect with GM” value is “A (12.5 μM<EC99≤25 μM)”.
